According to the NIST ThermoML archive (doi:10.1016/j.fluid.2012.07.027):
± gives the expanded uncertainty stated by the source.

Conditions: Liquid, Ebulliometric method (Recirculating still)

CCCCCOCCOCCOCCCCC [1-(2-(2-(pentyloxy)ethoxy)ethoxy)pentane]
Conditions | vapor or sublimation pressure [kPa]
427.5 K | 2 ± 0.03
437.5 K | 3 ± 0.03
444.6 K | 4 ± 0.04
450.3 K | 5 ± 0.05
455.1 K | 6 ± 0.05
459.3 K | 7 ± 0.06
461.2 K | 7.5 ± 0.06
463 K | 8 ± 0.07
466.2 K | 9 ± 0.07
469.1 K | 10 ± 0.08
471.7 K | 11 ± 0.09
474.1 K | 12 ± 0.09
476.3 K | 13 ± 0.1
478.6 K | 14 ± 0.1
480.7 K | 15 ± 0.12
488.8 K | 20 ± 0.14
495.7 K | 25 ± 0.15
